Publication PMC12479633, “A Phase IIa, Single-Blind, Placebo-Controlled, Parallel-Group Study to Assess Safety, Tolerability, and Pharmacokinetics/Pharmacodynamics of Brensocatib in Adults with Cystic Fibrosis” (Clinical Pharmacokinetics, 2025)

Legend:
CYP3A = test system: CYP3A; parameters: method as in PMID 35411669; details: cited from earlier work
[1] = parameters: method as in PMID 40267423; details: NCFBE, ASPEN, cited from earlier work
proteinase 3 (PR3) = assay: Active PR3 in blood (white blood cell pellets) of adults with CF; format: in vivo, human; details: for PR3, median % reduction relative to baseline: Blood, day 29
Method: (§1) Blood PD samples were collected at screening; predose on days 1, 2, 14, 28, and 29; and at the follow-up visit (day 35). The samples were analyzed at an external service provider to determine the concentrations of active NE, PR3, and CatG in white blood cell pellets using validated enzymatic methods with quantification limits of 87.9 ng/mL for NE and PR3 and 70.3 ng/mL for CatG. The fit-for-purpose methods details were published internally and stored within Insmed’s document repository.
(§2) If a participant experienced an intercurrent event, defined as use of antibiotics during an acute event that could influence NSP levels, the data were not included in the PD analysis. In assessing treatment-emergent adverse events (TEAEs), the “while-on-treatment” strategy was implemented, which encompassed the 28-day period following the final dose of study drug. With this strategy, data collected prior to the occurrence of the intercurrent event, that is, to discontinuation of brensocatib, were included in the analysis.

[2] = parameters: method as in PMID 35411669, PMID 29484635; details: cited from earlier work
cathepsin G (CatG) [3] = assay: CatG activity in sputum of adults with CF; format: in vivo, human
Description: as §2
On the basis of the comparability of PK between participants with and without concomitant use of CFTR modulators, NSP activity (NE, CatG, PR3) in blood and sputum was analyzed using the combined data sets without the CFTR modulator stratum.

[4] = test system: breast cancer resistance protein (BCRP); parameters: method as in PMID 35411669; details: cited from earlier work
neutrophil elastase (NE) = assay: Active NE in blood (white blood cell pellets) of adults with CF; format: in vivo, human; details: for NE, median % reduction relative to baseline: Blood, day 29
Method: as §1, §2

P-glycoprotein (P-gp) = test system: P-glycoprotein (P-gp); parameters: method as in PMID 35411669; details: cited from earlier work
cathepsin G (CatG) [5] = assay: Active CatG in blood (white blood cell pellets) of adults with CF; format: in vivo, human; details: for CatG, median % reduction relative to baseline: Blood, day 29
Method: as §1, §2

[6] = parameters: method as in PMID 39574348; details: single dose, cited from earlier work
[7] = over the dose range of 10–40 mg QD

Cn1c(=O)oc2ccc(-c3ccc(C[C@@H](C#N)NC(=O)[C@@H]4CNCCCO4)cc3)cc21 [Brensocatib]
substrate status (CYP3A; CYP3A): substrate
inhibition or induction of CYP3A (CYP3A): not a clinically meaningful inhibitor or inducer
annualized rate of adjudicated pulmonary exacerbations compared with placebo ([1]; 10 mg or 25 mg QD): significantly reduced
lung function decline (FEV1) over 52 weeks compared with placebo ([1]; 25 mg): significantly lower
PR3, median % reduction relative to baseline (proteinase 3 (PR3); 10 mg QD, n = 6): 17.3 (n = 6) %
PR3, median % reduction relative to baseline (proteinase 3 (PR3); 25 mg QD, n = 7): 40.8 (n = 7) %
PR3, median % reduction relative to baseline (proteinase 3 (PR3); 40 mg QD, n = 7): 55.0 (n = 7) %
median percent reduction of PR3 activity in blood (proteinase 3 (PR3); [7]): 17–55%
urinary excretion ([2]; at steady state): approximately 20%
elimination half-life ([2]; single doses of 5–120 mg and QD dosing at 10–40 mg): 20 to 30 h
steady state accumulation ([2]; single or multiple dosing): approximately twofold
CatG, median % reduction relative to baseline (cathepsin G (CatG) [3]; 10 mg QD, day 29, n = 5): 51.3 (n = 5) %
CatG, median % reduction relative to baseline (cathepsin G (CatG) [3]; 25 mg QD, day 29, n = 3): 0 (n = 3) %
CatG, median % reduction relative to baseline (cathepsin G (CatG) [3]; 40 mg QD, day 29, n = 2): 0 (n = 2) %
substrate status [4]: substrate
NE, median % reduction relative to baseline (neutrophil elastase (NE); 10 mg QD, n = 6): 35.3 (n = 6) %
NE, median % reduction relative to baseline (neutrophil elastase (NE); 25 mg QD, n = 7): 56.4 (n = 7) %
NE, median % reduction relative to baseline (neutrophil elastase (NE); 40 mg QD, n = 7): 74.0 (n = 7) %
median percent reduction of NE activity in blood (neutrophil elastase (NE); [7]): 35–74%
substrate status (P-glycoprotein (P-gp)): substrate
CatG, median % reduction relative to baseline (cathepsin G (CatG) [5]; 10 mg QD, n = 6): 75.1 (n = 6) %
CatG, median % reduction relative to baseline (cathepsin G (CatG) [5]; 25 mg QD, n = 7): 84.9 (n = 7) %
CatG, median % reduction relative to baseline (cathepsin G (CatG) [5]; 40 mg QD, n = 7): 91.3 (n = 7) %
median percent reduction of CatG activity in blood (cathepsin G (CatG) [5]; in all doses of brensocatib): 75–91%
tolerability ([6]; adults with varying degrees of renal impairment): well tolerated
effect of renal impairment on brensocatib elimination and exposure [6]: not significantly affected
